# In patent US10000521B2 (priority 2013, dated 2018):
# “Also recorded” adds a separate entry of the source.
# Key:
# [1] = TC50 assay in different human cell lines (96 h), HEK293; type: cell-based; conditions: HEK293 cells, about 96 h, MTS assay
# Method: (§1) The 96-well plate with cells incubated with test compound was removed from the 37° C. incubator. The appropriate amounts of the MTS and PMS reagents were removed from the kit and mixed well. The reagents were maintained in the dark due to their light sensitivity. […] The solutions were mixed completely in the wells prior to each reading.
# (§2) Plating Cells: Huh7, HEPG2, HEK293, MCF-7, or BxPC3 cells (which can be obtained from American Type Culture Collection, ATCC) were passaged when they were about 70% confluent. […] The cells following passaging were allowed to attach for about 24 hours at 37° C.
# (§3) The plates were then returned to the incubator, and cells incubated for about 96 h at 37° C.
# (§4) MTS Assay: Assay was carried out as described above.
# HCV replicon = experiment: IC50 assay with HCV luciferase replicon cell-line; type: cell-based; conditions: Hepatitis C virus, Huh-7; Huh7 cell line containing HCV replicon with luciferase reporter, 48 h
# Source text: Plating Cells: The cells used in these assays were a liver-derived Huh7 cell line containing an HCV replicon bearing a luciferase reporter gene. The Huh7 cell-line can be obtained from various sources including the Japanese Collection of Research Bioresources (JCRB), Osaka, Japan. The Huh7 cell line containing an HCV replicon bearing a luciferase reporter gene can be prepared essentially as described by Vrolijk J M, et al. (J Virol Methods. (2003) 110(2):201-9). Cells were passaged when they reached about 70% confluency.
# These 0.5 mM dilutions were then used to further serially dilute the compounds in DMEM+2% FBS+0.5% DMSO to keep the concentration of DMSO in each condition identical.
# The Glo Lysis Buffer and the Bright Glow reagent was allowed to warm to room temperature for about 30 min in the dark. […] The media was removed from cells, and the cells were gently washed with about 100 μL of phosphate buffered saline (PBS). […] It should be noted that luciferin has a half-life of approximately 30 min at room temperature after it is added to the plate. […] The data was saved and used to calculate the percent inhibition of luciferase activity at each drug concentration. […] Curve equation: (m1−m2)/(1+(x/m3)^m4); m1=100; m2=0.01; m3=0.01; m4=0.01; the equation is: […]
# PK9 cells [2] = experiment: TC50 assay with inhibition of ENT1, PK9 cells; type: cell-based; conditions: Homo sapiens, PK9, 48 h, PK9 cells (48 h)
# Method: (§5) Plating Cells: Huh7 cells or PK9 cells were seeded in 96-well plates at a density of 5,000 cells/well or 2,500 cells/well, respectively, and the plates were incubated at 37° C. for 24 h to allow for cell attachment.
# (§6) Treatment with equilibrative nucleoside transporter 1 (ENT1) Inhibitor: The media was then removed from the plates and replaced with media containing 2% FBS, 0.5% DMSO, and either 10 μM dipyramidole or 10 μM S-(4-nitrobenzyl)-6-thioinosine (NBTI).
# (§7) Treating with Control & Compound 1: After incubation with the ENT1 inhibitor, the cells were treated with each compound at final concentrations ranging from 500 μM to 0 μM in triplicate in media containing 2% FBS, 0.5% DMSO, and either 10 μM dipyridamole or 10 μM NBTI.
# RPK9 cells = experiment: cells; conditions: Homo sapiens, 48 h, read-out: TC50 (μM), 48 h treatment
# Method: (§8) Plating Cells: PK9 or RPK9 cells were seeded in 96-well plates at a density of 2,500 cells/well or 2,500 cells/well, respectively, and the plates were incubated at 37° C. for 24 h to allow for cell attachment.
# (§9) Treating with Control & Compound 1: The cells were treated with each compound at final concentrations ranging from 500 μM to 0 μM in triplicate in media containing 2% FBS and 0.5% DMSO.
# (§10) The RPK9 cells are described in Saiki, T., et al. (2012) Biochim. Biophys. Res. Commun. 421, 98-104).
# [3] = In vivo pharmacokinetic assessment (LC-MS/MS, plasma and liver); conditions: mice, oral
# Method: All pharmacokinetic studies were performed with CD-1 ICR mice (female, 4-6 week old; 20-30 gram body weight), and three mice were used at each dose level and at each time point for each compound tested. […] Tetrahydrouridine (THU) was immediately added to plasma samples at a final concentration of 25 μg/mL to prevent deamination of dFdC after collection, and the samples were subsequently flash-frozen and stored at −80° C. until analysis. Approximately 200-300 mg of each mouse liver was dissected and homogenized in 150 μL of phosphate buffered saline (PBS) containing 25 μg/mL THU, resulting in 2 mg liver/μL saline homogenate. These liver homogenates were also flash-frozen and stored at −80° C. until analysis. Equivalent amounts of blood plasma and liver tissue were also collected from untreated mice and used to prepare calibration standards and quality controls. An LC-MS/MS assay was utilized to simultaneously quantify the concentrations of compound 1, dFdC and dFdU in each of the plasma and liver samples.
# BxPC3 = experiment: TC50 assay in different human cell lines (96 h), BxPC3; type: cell-based; conditions: BXPC-3, about 96 h, MTS assay
# Method: as §1, §2, §3, §4
# Huh7 cells = experiment: TC50 assay with inhibition of ENT1, Huh7 cells; type: cell-based; conditions: Homo sapiens, Huh-7, 48 h, Huh7 cells (48 h)
# Method: as §5, §6, §7
# [4] = Stability test at different pH conditions (HPLC); type: physicochemical
# Method: HPLC analysis: 100 μl of the incubated solution was loaded onto a Vydac C18 analytical column 4.6/250, and the mobile phase run at 1 mL/min water with the following procedures: a. Inject 100 μl the incubated solution; b. Water for 5 minutes at 1 ml/min; c. 0-100% acetonitrile over 30 minutes; d. Back to 100% water.
# Analysis: Standard HPLC analysis software was used to quantitate the area under each peak. Degradation peaks were quantitated as a percentage of the peak of the same amount of control sample (no heat treatment).
# MCF-7 = experiment: TC50 assay in different human cell lines (96 h), MCF-7; type: cell-based; conditions: MCF7, about 96 h, MTS assay
# Method: as §1, §2, §3, §4
# PK9 cells [5] = experiment: TC50 assay, effect of deficient deoxycytidine kinase activity, PK9 cells; type: cell-based; conditions: Homo sapiens, 48 h, read-out: TC50 (μM), 48 h treatment
# Method: as §8, §9, §10
# Huh7 = experiment: TC50 assay in different human cell lines (96 h), Huh7; type: cell-based; conditions: Huh-7, about 96 h, MTS assay
# Method: as §1, §2, §3, §4
structure (smiles),measurement,setting,value
"O=C(Nc1ccn(C2O[C@H](CO)[C@@H](O)C2(F)F)c(=O)n1)c1ccc2c(c1)OCO2 (stereo partly drawn) [Compound 1, N-(1-((4R,5R)-3,3-difluoro-4-hydroxy-5-(hydroxymethyl)tetrahydrofuran-2-yl)-2-oxo-1,2-dihydropyrimidin-4-yl)benzo[d][1,3]dioxole-5-carboxamide]",CC50 at 96 h,[1],4.09 µM
same,IC50,HCV replicon,0.06 ± 0.008 µM
same,CC50,PK9 cells [2]; 10 μM NBTI,2.92 ± 0.41 µM
same,CC50,PK9 cells [2]; 10 μM dipyridamole,0.61 ± 0.31 µM
same,CC50,PK9 cells [2]; ENT1 inhibitor: None,1.63 ± 0.1 µM
same,CC50,RPK9 cells,> 500 µM
same,"distribution of gemcitabine produced by hydrolysis, liver versus plasma",[3],higher concentration in the liver than in plasma
same,linearity of dFdC exposure vs. compound 1 dosage,[3]; 1.0-8.0 mg/kg,linear pharmacokinetics
same,Liver AUCobs of compound 1,[3]; dose 1.0 mg/kg,1.10 µmol·min/L
same,Plasma AUCobs of compound 1,[3]; dose 1.0 mg/kg,0.95 µmol·min/L
same,Plasma AUCobs of dFdC converted from compound 1,[3]; dose 1.0 mg/kg,0.26 µmol·min/L
same,Liver AUCobs of compound 1,[3]; dose 4.0 mg/kg,7.84 µmol·min/L
same,Plasma AUCobs of compound 1,[3]; dose 4.0 mg/kg,3.45 µmol·min/L
same,Plasma AUCobs of dFdC converted from compound 1,[3]; dose 4.0 mg/kg,5.03 µmol·min/L
same,Liver AUCobs of compound 1,[3]; dose 8.0 mg/kg,9.53 µmol·min/L
same,Plasma AUCobs of compound 1,[3]; dose 8.0 mg/kg,3.71 µmol·min/L
same,Plasma AUCobs of dFdC converted from compound 1,[3]; dose 8.0 mg/kg,9.45 µmol·min/L
same,first-pass metabolism to inactive metabolite dFdU,[3]; plasma and liver samples,less of the inactive metabolite dFdU; also recorded: reduced first pass metabolism to the inactive metabolite dFdU
same,CC50,BxPC3,0.72 µM
same,CC50,Huh7 cells; 10 μM NBTI,440 ± 190 µM
same,CC50,Huh7 cells; 10 μM dipyridamole,410 ± 110 µM
same,CC50,Huh7 cells; ENT1 inhibitor: None,473 ± 74 µM
same,Compound remaining (%),[4]; Pretreatment,100%
same,Compound remaining (%),"[4]; pH 1, 40° C., 4 h",64%
same,Compound remaining (%),"[4]; pH 2, 40° C., 4 h",100%
same,Compound remaining (%),"[4]; pH 4, 40° C., 4 h",100%
same,Compound remaining (%),"[4]; pH 6, 40° C., 4 h",100%
same,Compound remaining (%),"[4]; pH 8, 40° C., 4 h",92%
same,CC50,MCF-7,1.19 µM
same,CC50,PK9 cells [5],1.63 ± 0.1 µM
same,CC50,Huh7,7.04 µM
